The record followed here is BindingDB's records for patent US20250145606 (Arcus Biosciences, 2025).

pIC50: −log10 of the molar value.

Assay in all cases: Inhibition of c-Kit, PDGFRα, PDGFRβ, CSFIR and FLT3 Kinase Activity Assay
For experiment [1], the target named is Platelet-derived growth factor receptor beta (Homo sapiens, UniProt P09619). On the procedure:
(§1) On the day of the assay, compounds were solubilized in DMSO and dispensed into a 384-well white Opti-plate (PerkinElmer, catalog #6007290) to generate a 22 point 1:2 titration. Enzyme solution was prepared for each of the tyrosine kinases in 50 mM HEPES, pH 7.4, 5 mM MgCl2 for c-Kit or 10 mM MgCl2 for FLT3, CSFIR, PDGFRa and PDGFRβ, 2 mM MnCl2, 0.01% Brij-35 and 0.01% BSA. Working enzyme concentrations were prepared for c-Kit at 2 nM (2×), PDGFRa and PDGFR at 10 nM (2×), CSFIR at 2 nM (2×) and FLT3 at 0.4 nM (2×). Five microliters of enzyme dilution of each tyrosine kinase were added to their respective 384-well white Opti-plate pre-dispensed with compound and allowed to incubate for 1 h at rt. Utilizing the same enzyme buffer recipe, 2x substrate mixes were prepared for each enzyme as follows: For c-Kit, 1.6 μM (2×) TK substrate and 16 μM (2×) ATP (Promega, catalog #V915). For PDGFRα, 3.2 μM TK substrate and 1 μM ATP. For PDGFRβ, 3.2 μM TK substrate and 40 μM ATP. For CSFIR, […] TK substrate and 20 μM ATP. For FLT3, 3.2 μM TK substrate and 100 μM ATP. Reactions were initiated by addition of 5 μL of the respective 2x substrate mix to each well of the plates containing the respective tyrosine kinase enzymes and were allowed to proceed for 120 minutes at rt, except for FLT3, the reaction time is 45 min. Following the reaction, 10 μL of detection mix consisting of 0.2 μM (2×) of Streptavidin-XL665 and 2 μM (2×) of TK-Antibody-Cryptate prepared in detection buffer (Part 62SDBRDF of KinEASE assay kit) was added and then allowed to incubate for 60 min. The TR-FRET signal was quantified by measuring the ratio of emission at 665 nm to 620 nm after excitation at 320 nm by reading on a PerkinElmer Envision multimode reader. Compound potencies (IC50 values) were determined using a standard 4-parameter non-linear regression fit.

In experiment [2] the target is Macrophage colony-stimulating factor 1 receptor (Homo sapiens, UniProt P07333). On the procedure:
as §1

In experiment [3] the target is Mast/stem cell growth factor receptor Kit (Homo sapiens, UniProt P10721). How it is done: as §1
Experiment [4] has as its target Platelet-derived growth factor receptor alpha (Homo sapiens, UniProt P16234). On the procedure:
as §1

Sequence of Platelet-derived growth factor receptor alpha (P16234 whole entry): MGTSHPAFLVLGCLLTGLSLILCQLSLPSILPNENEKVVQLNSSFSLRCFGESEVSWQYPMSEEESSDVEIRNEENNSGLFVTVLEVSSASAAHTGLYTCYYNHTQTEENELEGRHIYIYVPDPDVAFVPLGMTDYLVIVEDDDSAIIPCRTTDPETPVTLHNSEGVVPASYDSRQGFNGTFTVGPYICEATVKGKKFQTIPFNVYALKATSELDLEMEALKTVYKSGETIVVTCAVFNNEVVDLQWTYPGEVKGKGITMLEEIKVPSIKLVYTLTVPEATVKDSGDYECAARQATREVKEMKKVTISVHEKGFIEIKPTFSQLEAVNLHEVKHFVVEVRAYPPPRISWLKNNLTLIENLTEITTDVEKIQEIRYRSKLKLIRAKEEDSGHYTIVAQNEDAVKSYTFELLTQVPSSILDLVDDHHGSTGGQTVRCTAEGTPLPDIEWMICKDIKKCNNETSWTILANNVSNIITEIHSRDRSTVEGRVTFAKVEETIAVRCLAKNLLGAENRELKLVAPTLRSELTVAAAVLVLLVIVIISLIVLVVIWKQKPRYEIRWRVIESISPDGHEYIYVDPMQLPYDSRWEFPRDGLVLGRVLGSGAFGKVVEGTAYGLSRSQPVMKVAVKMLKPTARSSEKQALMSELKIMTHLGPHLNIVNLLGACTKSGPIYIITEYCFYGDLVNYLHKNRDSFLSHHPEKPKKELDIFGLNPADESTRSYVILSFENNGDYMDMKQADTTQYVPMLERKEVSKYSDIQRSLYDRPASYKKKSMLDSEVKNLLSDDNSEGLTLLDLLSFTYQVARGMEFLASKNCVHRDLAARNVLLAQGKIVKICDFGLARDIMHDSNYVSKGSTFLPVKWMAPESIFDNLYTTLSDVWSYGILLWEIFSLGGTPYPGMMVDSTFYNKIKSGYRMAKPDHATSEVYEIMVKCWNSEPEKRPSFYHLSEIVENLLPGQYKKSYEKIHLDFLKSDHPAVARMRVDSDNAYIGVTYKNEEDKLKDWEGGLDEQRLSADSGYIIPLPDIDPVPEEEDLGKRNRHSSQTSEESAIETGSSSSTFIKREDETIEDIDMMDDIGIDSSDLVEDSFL
Sequence of Platelet-derived growth factor receptor beta (P09619 whole entry): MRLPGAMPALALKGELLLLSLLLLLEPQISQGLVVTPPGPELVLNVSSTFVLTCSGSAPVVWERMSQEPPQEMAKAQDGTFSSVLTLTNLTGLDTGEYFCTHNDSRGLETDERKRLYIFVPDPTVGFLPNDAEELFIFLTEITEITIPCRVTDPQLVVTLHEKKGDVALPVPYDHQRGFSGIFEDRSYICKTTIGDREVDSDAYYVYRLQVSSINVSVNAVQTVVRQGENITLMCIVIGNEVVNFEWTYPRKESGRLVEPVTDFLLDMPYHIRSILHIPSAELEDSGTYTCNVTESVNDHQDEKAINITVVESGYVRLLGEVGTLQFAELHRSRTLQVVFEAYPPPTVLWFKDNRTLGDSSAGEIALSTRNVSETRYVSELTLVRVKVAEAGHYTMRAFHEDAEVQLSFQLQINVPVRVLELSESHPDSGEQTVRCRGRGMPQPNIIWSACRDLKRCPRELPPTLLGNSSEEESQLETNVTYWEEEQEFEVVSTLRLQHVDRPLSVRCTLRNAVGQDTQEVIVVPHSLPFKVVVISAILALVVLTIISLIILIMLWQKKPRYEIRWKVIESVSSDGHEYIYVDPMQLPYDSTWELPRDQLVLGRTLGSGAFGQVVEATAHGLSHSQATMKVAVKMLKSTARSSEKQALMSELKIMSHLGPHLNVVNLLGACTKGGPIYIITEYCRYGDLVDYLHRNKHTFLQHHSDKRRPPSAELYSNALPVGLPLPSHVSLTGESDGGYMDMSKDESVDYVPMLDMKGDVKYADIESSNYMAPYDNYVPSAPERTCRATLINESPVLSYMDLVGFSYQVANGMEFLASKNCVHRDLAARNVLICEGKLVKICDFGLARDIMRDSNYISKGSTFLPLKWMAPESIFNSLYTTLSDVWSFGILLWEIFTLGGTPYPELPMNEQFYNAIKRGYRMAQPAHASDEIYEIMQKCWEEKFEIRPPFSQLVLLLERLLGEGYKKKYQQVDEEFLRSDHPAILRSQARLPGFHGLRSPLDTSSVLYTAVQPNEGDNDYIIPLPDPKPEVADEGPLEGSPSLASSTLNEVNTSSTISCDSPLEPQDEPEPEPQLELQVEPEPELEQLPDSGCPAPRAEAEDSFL
Sequence of Macrophage colony-stimulating factor 1 receptor (P07333 whole entry): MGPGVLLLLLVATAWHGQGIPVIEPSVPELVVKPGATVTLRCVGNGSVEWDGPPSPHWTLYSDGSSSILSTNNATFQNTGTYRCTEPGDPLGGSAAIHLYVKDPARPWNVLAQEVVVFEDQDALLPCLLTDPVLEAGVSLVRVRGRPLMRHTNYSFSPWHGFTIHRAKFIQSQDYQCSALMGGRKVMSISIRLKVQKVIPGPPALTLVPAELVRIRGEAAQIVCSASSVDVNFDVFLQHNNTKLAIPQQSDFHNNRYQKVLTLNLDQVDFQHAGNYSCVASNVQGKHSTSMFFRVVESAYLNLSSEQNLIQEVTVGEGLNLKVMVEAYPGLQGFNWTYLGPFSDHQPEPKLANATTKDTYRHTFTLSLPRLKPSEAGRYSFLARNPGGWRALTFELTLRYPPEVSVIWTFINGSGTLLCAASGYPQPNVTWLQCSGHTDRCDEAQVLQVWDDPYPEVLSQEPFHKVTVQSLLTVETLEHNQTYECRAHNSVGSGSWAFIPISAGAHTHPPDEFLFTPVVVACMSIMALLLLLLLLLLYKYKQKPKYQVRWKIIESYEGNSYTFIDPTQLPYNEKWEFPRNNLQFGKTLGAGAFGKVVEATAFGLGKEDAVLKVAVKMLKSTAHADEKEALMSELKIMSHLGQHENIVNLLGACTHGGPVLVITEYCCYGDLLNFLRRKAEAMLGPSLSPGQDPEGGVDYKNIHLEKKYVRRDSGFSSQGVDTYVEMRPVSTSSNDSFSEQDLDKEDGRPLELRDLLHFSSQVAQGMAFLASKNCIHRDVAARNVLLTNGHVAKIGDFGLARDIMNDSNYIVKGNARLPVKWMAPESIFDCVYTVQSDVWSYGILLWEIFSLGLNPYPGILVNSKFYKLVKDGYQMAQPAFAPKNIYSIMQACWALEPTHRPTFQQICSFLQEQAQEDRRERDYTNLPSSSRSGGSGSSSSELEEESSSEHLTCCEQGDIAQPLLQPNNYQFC
Sequence of Mast/stem cell growth factor receptor Kit (P10721 whole entry): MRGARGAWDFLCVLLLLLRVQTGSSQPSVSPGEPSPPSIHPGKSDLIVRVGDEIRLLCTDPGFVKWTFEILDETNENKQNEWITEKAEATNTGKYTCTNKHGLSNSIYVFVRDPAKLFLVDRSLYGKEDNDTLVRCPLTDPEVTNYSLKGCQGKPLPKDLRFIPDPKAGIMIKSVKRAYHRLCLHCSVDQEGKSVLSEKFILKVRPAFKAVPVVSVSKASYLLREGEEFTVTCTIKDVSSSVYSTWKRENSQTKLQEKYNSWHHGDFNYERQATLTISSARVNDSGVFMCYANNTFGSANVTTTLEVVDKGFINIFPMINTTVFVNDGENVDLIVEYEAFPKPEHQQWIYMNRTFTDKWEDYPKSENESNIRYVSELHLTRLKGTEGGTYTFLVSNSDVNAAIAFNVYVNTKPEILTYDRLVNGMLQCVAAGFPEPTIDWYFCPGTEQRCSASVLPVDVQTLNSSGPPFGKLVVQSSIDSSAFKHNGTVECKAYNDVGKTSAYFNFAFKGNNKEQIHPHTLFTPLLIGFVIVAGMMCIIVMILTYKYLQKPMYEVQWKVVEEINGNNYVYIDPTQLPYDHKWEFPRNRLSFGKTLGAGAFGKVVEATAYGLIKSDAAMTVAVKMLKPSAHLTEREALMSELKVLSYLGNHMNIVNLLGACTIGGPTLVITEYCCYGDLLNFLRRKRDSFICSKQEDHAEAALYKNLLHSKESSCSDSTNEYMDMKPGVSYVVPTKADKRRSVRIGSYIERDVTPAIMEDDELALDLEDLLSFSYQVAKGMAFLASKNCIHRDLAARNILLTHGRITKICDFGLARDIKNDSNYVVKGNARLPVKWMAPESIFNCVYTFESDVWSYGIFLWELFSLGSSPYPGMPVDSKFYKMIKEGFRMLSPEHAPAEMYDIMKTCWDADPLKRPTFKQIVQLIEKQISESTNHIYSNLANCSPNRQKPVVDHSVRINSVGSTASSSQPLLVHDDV

For the molecule `Cc1cc(F)c(C(=O)Nc2cn[nH]c2)cc1NC(=O)c1cnc(N)s1` [US20250145606, Example 157], the pIC50 (in general, the negative decadic logarithm of the IC50, by convention in mol/L) was < 6.00 in experiment [1], < 6.00 in experiment [2], > 7.00 in experiment [3] and < 6.00 in experiment [4].
On to `Cc1ncc(C(=O)Nc2cc(C(=O)NCc3cccnc3)c(F)cc2C)s1` [US20250145606, Example 12], for which the pIC50 in experiment [1], in experiment [2] and in experiment [4] was < 6.00 each time.
